From PubChem BioAssay AID1963968 (Molecular Pharmacology Branch, DTP, NCI, 2024)
pIC50: −log10 of the molar value.

System: 945468-187-T-J3-PDC spheroids with HUVEC/MSC, viability
Test: Anticancer human tumor 945468-187-T-J3-PDC patient-derived rectal carcinoma cell line growth inhibition [PI3K]
Conditions: for pIC50: curve of first compound; for viability, T/C: stronger effect = lower value
Summary of the method: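 Agents were dosed from a top concentration near clinical Cmax (otherwise 10 microM) in half-log decrements, alone or combined with PI3K inhibitors. The spheroids contain tumor cells plus endothelial (HUVEC) and MSC stroma; viability is measured.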

[1] = second compound 0.00316 µM, first compound 0.0316 µM
[2] = second compound 0.00316 µM, first compound 0.1 µM
[3] = second compound 0.00316 µM, first compound 0.316 µM
[4] = second compound 0.00316 µM, first compound 1 µM
[5] = second compound 0.00316 µM, first compound 3.16 µM
[6] = second compound 0.00316 µM, first compound 10 µM
[7] = second compound 0.01 µM, first compound 0.0316 µM
[8] = second compound 0.01 µM, first compound 0.1 µM
[9] = second compound 0.01 µM, first compound 0.316 µM
[10] = second compound 0.01 µM, first compound 1 µM
[11] = second compound 0.01 µM, first compound 3.16 µM
[12] = second compound 0.01 µM, first compound 10 µM
[13] = second compound 0.0316 µM, first compound 0.0316 µM
[14] = second compound 0.0316 µM, first compound 0.1 µM
[15] = second compound 0.0316 µM, first compound 0.316 µM
[16] = second compound 0.0316 µM, first compound 1 µM
[17] = second compound 0.0316 µM, first compound 3.16 µM
[18] = second compound 0.0316 µM, first compound 10 µM
[19] = second compound 0.1 µM, first compound 0.0316 µM
[20] = second compound 0.1 µM, first compound 0.1 µM
[21] = second compound 0.1 µM, first compound 0.316 µM
[22] = second compound 0.1 µM, first compound 1 µM
[23] = second compound 0.1 µM, first compound 3.16 µM
[24] = second compound 0.1 µM, first compound 10 µM
[25] = second compound 0.316 µM, first compound 0.0316 µM
[26] = second compound 0.316 µM, first compound 0.1 µM
[27] = second compound 0.316 µM, first compound 0.316 µM
[28] = second compound 0.316 µM, first compound 1 µM
[29] = second compound 0.316 µM, first compound 3.16 µM
[30] = second compound 0.316 µM, first compound 10 µM
[31] = second compound 1 µM, first compound 0.0316 µM
[32] = second compound 1 µM, first compound 0.1 µM
[33] = second compound 1 µM, first compound 0.316 µM
[34] = second compound 1 µM, first compound 1 µM
[35] = second compound 1 µM, first compound 3.16 µM
[36] = second compound 1 µM, first compound 10 µM
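Note: spheroids exposed to agents for 7 days before viability read.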
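Throughout, for viability, T/C: 100% = DMSO vehicle control viability.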

With CC(C)NCC(C(=O)N1CCN(c2ncnc3c2C(C)CC3O)CC1)c1ccc(Cl)cc1 (stereo unspecified) + COc1c(OCCCN2CCOCC2)ccc2c3n(c(=NC(=O)c4cnc(N)nc4)nc12)CCN3 the pIC50 (second compound 0.00316 µM) was 5.43, the pIC50 (second compound 0.01 µM) was 5.43 and the pIC50 (second compound 0.0316 µM) was 5.73. The pIC50 (second compound 0.1 µM) was > 7.50, the pIC50 (second compound 0.316 µM) was > 7.50 and the pIC50 (second compound 1 µM) was > 7.50. It also gave a viability, T/C [1] of 94.2%, a viability, T/C [2] of 83.3% and a viability, T/C [3] of 88.8%. It also gave a viability, T/C [4] of 70.6%, a viability, T/C [5] of 52.1% and a viability, T/C [6] of 39.4%. It also gave a viability, T/C [7] of 92.6%, a viability, T/C [8] of 80.9% and a viability, T/C [9] of 89.3%. For the same compound, the viability, T/C [10] was 81.7%, the viability, T/C [11] was 53.8% and the viability, T/C [12] was 28.2%. It also gave a viability, T/C [13] of 79%, a viability, T/C [14] of 84.4% and a viability, T/C [15] of 66.7%. For the same compound, the viability, T/C [16] was 71.8%, the viability, T/C [17] was 31.1% and the viability, T/C [18] was 25.8%. It also gave a viability, T/C [19] of 39%, a viability, T/C [20] of 45.5% and a viability, T/C [21] of 43.4%. It also gave a viability, T/C [22] of 27.9%, a viability, T/C [23] of 23.5% and a viability, T/C [24] of 18.6%. The viability, T/C [25] was 19.8%, the viability, T/C [26] was 19.3% and the viability, T/C [27] was 17.6%. For the same compound, the viability, T/C [28] was 18%, the viability, T/C [29] was 19.5% and the viability, T/C [30] was 13.3%. For the same compound, the viability, T/C [31] was 18.6%, the viability, T/C [32] was 13.7% and the viability, T/C [33] was 15.8%. For the same compound, the viability, T/C [34] was 13.6%, the viability, T/C [35] was 19.7% and the viability, T/C [36] was 11.8%.
With CCN1CCN(Cc2ccc(Nc3ncc(F)c(-c4cc(F)c5nc(C)n(C(C)C)c5c4)n3)nc2)CC1 + COc1c(OCCCN2CCOCC2)ccc2c3n(c(=NC(=O)c4cnc(N)nc4)nc12)CCN3 the pIC50 (second compound 0.00316 µM) was < 6.00, the pIC50 (second compound 0.01 µM) was 6.18 and the pIC50 (second compound 0.0316 µM) was 6.59. For the same compound, the pIC50 (second compound 0.1 µM) was 8.27, the pIC50 (second compound 0.316 µM) was > 8.50 and the pIC50 (second compound 1 µM) was > 8.50. The viability, T/C (second compound 0.00316 µM, first compound 0.00316 µM) was 88.6%, the viability, T/C (second compound 0.00316 µM, first compound 0.01 µM) was 83.6% and the viability, T/C [1] was 80.5%. The viability, T/C [2] was 82.3%, the viability, T/C [3] was 95.2% and the viability, T/C [4] was 53.5%. For the same compound, the viability, T/C (second compound 0.01 µM, first compound 0.00316 µM) was 107%, the viability, T/C (second compound 0.01 µM, first compound 0.01 µM) was 82.3% and the viability, T/C [7] was 110%. It also gave a viability, T/C [8] of 89.8%, a viability, T/C [9] of 79.4% and a viability, T/C [10] of 33.8%. It also gave a viability, T/C (second compound 0.0316 µM, first compound 0.00316 µM) of 90.2%, a viability, T/C (second compound 0.0316 µM, first compound 0.01 µM) of 81.8% and a viability, T/C [13] of 82.2%. It also gave a viability, T/C [14] of 75.1%, a viability, T/C [15] of 44.3% and a viability, T/C [16] of 22.3%. The viability, T/C (second compound 0.1 µM, first compound 0.00316 µM) was 57%, the viability, T/C (second compound 0.1 µM, first compound 0.01 µM) was 41.3% and the viability, T/C [19] was 30.7%. It also gave a viability, T/C [20] of 24.1%, a viability, T/C [21] of 18.2% and a viability, T/C [22] of 17.9%. It also gave a viability, T/C (second compound 0.316 µM, first compound 0.00316 µM) of 25.4%, a viability, T/C (second compound 0.316 µM, first compound 0.01 µM) of 16.3% and a viability, T/C [25] of 14.8%. The viability, T/C [26] was 16.9%, the viability, T/C [27] was 17.1% and the viability, T/C [28] was 16.6%. For the same compound, the viability, T/C (second compound 1 µM, first compound 0.00316 µM) was 15.2%, the viability, T/C (second compound 1 µM, first compound 0.01 µM) was 16.1% and the viability, T/C [31] was 13.6%. For the same compound, the viability, T/C [32] was 16.8%, the viability, T/C [33] was 19% and the viability, T/C [34] was 16.4%.
Cn1ncc(Cl)c1-c1cc(C(=O)NC(CN)Cc2cccc(F)c2)sc1Cl (stereo unspecified) + COc1c(OCCCN2CCOCC2)ccc2c3n(c(=NC(=O)c4cnc(N)nc4)nc12)CCN3 showed a pIC50 (second compound 0.00316 µM) of 6.00, a pIC50 (second compound 0.01 µM) of 6.19 and a pIC50 (second compound 0.0316 µM) of 6.43. For the same compound, the pIC50 (second compound 0.1 µM) was > 7.50, the pIC50 (second compound 0.316 µM) was > 7.50 and the pIC50 (second compound 1 µM) was > 7.50. The viability, T/C [1] was 88.3%, the viability, T/C [2] was 82.3% and the viability, T/C [3] was 77.4%. It also gave a viability, T/C [4] of 48.8%, a viability, T/C [5] of 32.7% and a viability, T/C [6] of 25.2%. The viability, T/C [7] was 83.4%, the viability, T/C [8] was 83.7% and the viability, T/C [9] was 67%. It also gave a viability, T/C [10] of 36.9%, a viability, T/C [11] of 30.9% and a viability, T/C [12] of 14.7%. The viability, T/C [13] was 83%, the viability, T/C [14] was 80.3% and the viability, T/C [15] was 51.1%. The viability, T/C [16] was 29.1%, the viability, T/C [17] was 29% and the viability, T/C [18] was 12.9%. The viability, T/C [19] was 39.4%, the viability, T/C [20] was 34.8% and the viability, T/C [21] was 28.4%. It also gave a viability, T/C [22] of 24.3%, a viability, T/C [23] of 20.5% and a viability, T/C [24] of 7.64%. It also gave a viability, T/C [25] of 20.5%, a viability, T/C [26] of 19.1% and a viability, T/C [27] of 17.4%. It also gave a viability, T/C [28] of 19.6%, a viability, T/C [29] of 23.4% and a viability, T/C [30] of 3.82%. The viability, T/C [31] was 18%, the viability, T/C [32] was 16.8% and the viability, T/C [33] was 16.9%. It also gave a viability, T/C [34] of 16.1%, a viability, T/C [35] of 16% and a viability, T/C [36] of 1.05%.
